Data reported in patent US8987275B2, “Indazole compounds and their uses” (Dana-Farber Cancer Institute, Inc., priority 2010, dated 2015).

Assays:
Type in all cases: cell-based
EML4-Alk = molecular target: T1, EML4-Alk (Homo sapiens, UniProt Q9UM73); experiment: IC50 of compounds against kinase target EML4-Alk (Table I)
T1 construct: EML4 (N-terminal fusion partner); human EML4 would be Q9HC35; the other entry of the earlier key: EML4 (Q9HC35, Echinoderm microtubule-associated protein-like 4)
Procedure: (§1) All compounds are initially dissolved in DMSO to make 10 mM stock solutions, and then are serially diluted to obtain final concentrations for in vitro experiments.
(§2) All cell lines are cultured with 5% CO2 at 37° C. in RPMI (Mediatech, Inc., Herndon, Va.) with 10% fetal calf serum (FCS) and supplemented with 1% L-glutamine. Parental Ba/F3 cells are similarly cultured with 15% WEHI-conditioned medium as a source of IL-3. Transfected cell lines are cultured in media supplemented with 1 mg/ml G418.

BCR-Abl T315I = molecular target: T2, BCR-Abl T315I (Homo sapiens, UniProt P00519, T315I); experiment: IC50 of compounds against kinase target T315I (Table I); conditions: read-out: IC50 T3151
T2 construct: BCR (N-terminal fusion partner of BCR-ABL); human BCR would be P11274; expressed in transfected cells; host or cells: Ba/F3 (or 32D) murine hematopoietic cells transfected with BCR-ABL T315I in pCI-neo; the other entry of the earlier key: BCR (P11274, Breakpoint cluster region protein)
Procedure: as §1
(§3) Ba/F3.p210 cells are obtained by transfecting the IL-3-dependent marine hematopoietic Ba/F3 cell line with a pGD vector containing p210BCR-ABL (B2A2) cDNA (Daley and Baltimore, 1988; Sattler et al., 1996; Okuda et al., 1996). Murine hematopoietic 32D cells are transduced with retrovirus to express p210 Bcr-ABL (32D.p210 cells) (Matulonis et al., 1993); the 32D-T315I cell line is transfected by electroporation with the imatinib resistant BCR-ABL construct (pCI-neo Mammalian Expression Vector; Promega (#E1841) harboring the point mutation T315I (Weisberg et al., 2005). Ba/F3 cells are stably transfected by electroporation with imatinib-resistant BCR-ABL constructs (pCI-neo Mammalian Expression Vector; Promega (#E1841) harboring the point mutations T315I, F317L, F486S, and M351T; transfectants are selected for neomycin resistance and IL-3-independent growth (Weisberg et al., 2005). Ba/F3 cells are stably transfected by electroporation with BCR-ABL point mutants identified in a random mutagenesis screen for BCR-ABL point mutants conferring resistance to nilotinib: Q252H, E292K, Y253C, Y253H, E255K, and V289L (Ray et al., 2007). Ba/F3 cells are made to express Tel-PDGFRβ as described by Golub et al., 1994, and Carroll et al., 1996. Constructs of D842V-PDGFRα and V561D-PDGFRα cDNA cloned into pcDNA3.1 are stably transfected into Ba/F3 cells by electroporation, and cells are selected for neomycin resistance and IL3-independent growth as described by Weisberg et al., 2006.
as §2

Tel-Alk = molecular target: T3, Tel-Alk (Homo sapiens, UniProt Q9UM73); experiment: IC50 of compounds against kinase target Tel-Alk (Table I)
T3 construct: TEL (ETV6); N-terminal fusion partner; human ETV6 would be P41212; the other entry of the earlier key: ETV6 (P41212, Transcription factor ETV6)
T3 sequence (Q9UM73 1116-1392 limits assumed): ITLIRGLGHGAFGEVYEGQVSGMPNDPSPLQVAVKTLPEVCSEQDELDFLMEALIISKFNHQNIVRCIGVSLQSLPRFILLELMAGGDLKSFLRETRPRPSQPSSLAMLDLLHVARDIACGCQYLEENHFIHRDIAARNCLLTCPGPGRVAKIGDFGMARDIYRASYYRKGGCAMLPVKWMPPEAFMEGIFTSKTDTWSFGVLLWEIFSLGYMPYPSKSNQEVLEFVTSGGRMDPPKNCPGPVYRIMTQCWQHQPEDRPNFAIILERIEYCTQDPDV
Procedure: as §1, §2

Bcr-Abl = molecular target: T4, Bcr-Abl (Homo sapiens, UniProt P00519); experiment: IC50 of compounds against kinase target Bcr-Abl (Table I)
T4 construct: BCR (N-terminal fusion partner, p210 form, B2A2 junction); expressed in transfected cells; host or cells: Ba/F3.p210 (or 32D.p210) murine hematopoietic cells; the other entry of the earlier key: BCR (P11274, Breakpoint cluster region protein)
Procedure: as §1, §3, §2

T1 sequence (Q9UM73 1058-1620 limits assumed): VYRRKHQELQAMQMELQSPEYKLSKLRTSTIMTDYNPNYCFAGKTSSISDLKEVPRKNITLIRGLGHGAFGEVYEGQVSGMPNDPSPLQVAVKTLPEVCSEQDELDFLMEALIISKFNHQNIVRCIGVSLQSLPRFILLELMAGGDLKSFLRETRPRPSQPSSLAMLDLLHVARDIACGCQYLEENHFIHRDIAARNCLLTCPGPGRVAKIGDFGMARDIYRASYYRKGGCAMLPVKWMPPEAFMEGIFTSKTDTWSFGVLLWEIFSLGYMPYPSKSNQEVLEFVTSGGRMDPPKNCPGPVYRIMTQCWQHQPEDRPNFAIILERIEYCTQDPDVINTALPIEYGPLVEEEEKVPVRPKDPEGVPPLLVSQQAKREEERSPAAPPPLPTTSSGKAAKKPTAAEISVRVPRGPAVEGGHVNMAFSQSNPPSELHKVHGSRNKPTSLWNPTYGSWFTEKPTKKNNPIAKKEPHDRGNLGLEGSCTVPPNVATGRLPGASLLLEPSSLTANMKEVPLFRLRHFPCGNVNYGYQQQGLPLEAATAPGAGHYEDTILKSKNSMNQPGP

SMILES	IC50 (EML4-Alk) [µM]	IC50 (BCR-Abl T315I) [µM]	IC50 (Tel-Alk) [µM]	IC50 (Bcr-Abl) [µM]
CN1CCN(c2ccc(C(=O)Nc3n[nH]c4cc(-c5cccc(C(=O)Nc6cccc(C(F)(F)F)c6)c5)ccc34)cc2)CC1 [Compound 28, 3-(3-(4-(4-methylpiperazin-1-yl)benzamido)-1H-indazol-6-yl)-N-(3-(trifluoromethyl)phenyl)benzamide]	> 10	> 10	> 10	1.44
CCN1CCN(Cc2ccc(NC(=O)c3cccc(-c4ccc5c(NC(=O)C6CC6)n[nH]c5c4)c3)cc2)CC1 [Compound 9]	> 10	> 10	> 10	> 10
CCN1CCN(Cc2ccc(C(=O)Nc3cccc(-c4ccc5c(NC(=O)C6CC6)n[nH]c5c4)c3)cc2C(F)(F)F)CC1 [Compound 23]	> 10	> 10	> 10	> 10
CCN1CCN(Cc2ccc(NC(=O)c3cccc(-c4ccc5c(NC(=O)C6CC6)n[nH]c5c4)c3)cc2C(F)(F)F)CC1 [Compound 19]	0.06	0.34	0.03	0.65
CCN1CCN(Cc2ccc(C(=O)Nc3cccc(-c4ccc5c(N)n[nH]c5c4)c3)cc2C(F)(F)F)CC1 [Compound 20]	0.4	0.31	0.27	0.09
O=C(NCCN1CCOCC1)c1cccc(-c2ccc3c(NC(=O)C4CC4)n[nH]c3c2)c1 [Compound 7]	> 10	> 10	> 10	> 10
O=C(Nc1cccc(-c2ccc3c(NC(=O)C4CC4)n[nH]c3c2)c1)C1CC1 [Compound 22]	0.5	1.27	0.43	0.36
CNC(=O)c1cccc(-c2ccc3c(NC(=O)C4CC4)n[nH]c3c2)c1 [Compound 12]	1.05	2.08	0.72	1.9
CCN1CCN(Cc2ccc(NC(=O)c3cccc(-c4ccc5c(N)n[nH]c5c4)c3)cc2C(F)(F)F)CC1 [Compound 17]	> 10	7.12	> 10	0.78
CCN1CCN(Cc2ccc(NC(=O)c3cccc(Nc4ccc5c(NC(=O)C6CC6)n[nH]c5c4)c3)cc2C(F)(F)F)CC1 [Compound 24]	2.53	3.11	3.75	2.38
Cc1ccc(C(=O)Nc2cccc(C(F)(F)F)c2)cc1-c1ccc2c(NC(=O)C3CC3)n[nH]c2c1 [Compound 15]	8.47	> 10	1.29	1.19
CCN1CCN(Cc2ccc(NC(=O)c3cccc(-c4ccc5c(NC)n[nH]c5c4)c3)cc2C(F)(F)F)CC1 [Compound 2, N-(4-((4-ethylpiperazin-1-yl)methyl)-3-(trifluoromethyl)phenyl)-3-(3-(methylamino)-1H-indazol-6-yl)benzamide]	4.19	0.63	4.48	0.05
Cc1ccc(C(=O)Nc2cccc(C(F)(F)F)c2)cc1Nc1ccc2c(NC(=O)C3CC3)n[nH]c2c1 [Compound 25, 3-(3-(cyclopropanecarboxamido)-1H-indazol-6-ylamino)-4-methyl-N-(3-(trifluoro-methyl)phenyl)benzamide]	> 10	> 10	7.18	7.18
CONC(=O)c1cccc(-c2ccc3c(NC(=O)C4CC4)n[nH]c3c2)c1 [Compound 11]	> 10	> 10	> 10	> 10
CCN1CCN(Cc2ccc(NC(=O)c3cccc(-c4ccc5c(NC(=O)c6ccccc6)n[nH]c5c4)c3)cc2C(F)(F)F)CC1 [Compound 3]	1.67	–	1.07	0.47
CCN1CCN(Cc2ccc(NC(=O)c3ccc(C)c(-c4ccc5c(NC(=O)C6CC6)n[nH]c5c4)c3)cc2C(F)(F)F)CC1 [Compound 13]	1.06	0.5	0.31	0.03
CCN1CCN(Cc2ccc(NC(=O)c3ccc(C)c(-c4ccc5c(NC(=O)C6CC6)n[nH]c5c4)c3)cc2)CC1 [Compound 14]	5.6	> 10	1.44	1.05
CCOC(=O)c1cccc(-c2ccc3c(NC(=O)c4ccc(N5CCN(C)CC5)cc4)n[nH]c3c2)c1 [Compound 27]	4.22	1.56	5.26	0.07
Cc1cn(-c2cc(NC(=O)c3cccc(-c4ccc5c(NC(=O)C6CC6)n[nH]c5c4)c3)cc(C(F)(F)F)c2)cn1 [Compound 6]	1.34	0.31	2.9	3.07
CCN1CCN(Cc2ccc(NC(=O)Nc3cccc(-c4ccc5c(NC(=O)C6CC6)n[nH]c5c4)c3)cc2C(F)(F)F)CC1 [Compound 21]	0.36	0.24	0.32	0.53
COc1cc(Nc2ccc3c(NC(=O)C4CC4)n[nH]c3c2)cc(C(=O)Nc2ccc(CN3CCN(C)CC3)c(C(F)(F)F)c2)c1 [Compound 26]	> 10	–	7.08	7.08
CNc1n[nH]c2cc(-c3cccc(C(=O)Nc4cc(-n5cnc(C)c5)cc(C(F)(F)F)c4)c3)ccc12 [Compound 18]	> 10	3.08	> 10	1.57
O=C(Nc1cccc(C(F)(F)F)c1)c1cccc(-c2ccc3c(NC(=O)C4CC4)n[nH]c3c2)c1 [Compound 1]	> 10	–	> 10	> 10
O=C(Nc1n[nH]c2cc(-c3cccc(C(=O)N4CCC(N5CCCC5)CC4)c3)ccc12)C1CC1 [Compound 8]	> 10	> 10	> 10	> 10
O=C(NC1CC1)c1cccc(-c2ccc3c(NC(=O)C4CC4)n[nH]c3c2)c1 [Compound 10]	> 10	> 10	> 10	> 10
Cc1cn(-c2cc(NC(=O)c3ccc(C)c(-c4ccc5c(NC(=O)C6CC6)n[nH]c5c4)c3)cc(C(F)(F)F)c2)cn1 [Compound 16]	> 10	> 10	> 10	0.22
